The record followed here is article PMC5695821, “Pharmacological inhibition of RORγt suppresses the Th17 pathway and alleviates arthritis in vivo” (PLoS ONE, 2017).

In the test the target is T1, RORγt (Homo sapiens, UniProt P51449).
T1 construct: gene RORC; LBD, amino acids 264–518, His6-tagged
T1 sequence (P51449 264-518): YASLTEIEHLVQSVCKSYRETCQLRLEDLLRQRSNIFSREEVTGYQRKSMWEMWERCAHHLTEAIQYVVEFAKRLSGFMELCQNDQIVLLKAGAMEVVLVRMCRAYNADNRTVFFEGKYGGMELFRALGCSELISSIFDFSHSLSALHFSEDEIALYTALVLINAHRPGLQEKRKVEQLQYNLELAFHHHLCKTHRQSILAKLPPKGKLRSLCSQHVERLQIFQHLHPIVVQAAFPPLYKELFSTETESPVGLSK
The experiment in a line: TR-FRET displacement of RIP140 co-activator peptide from purified RORγt-LBD; supported by DSLS thermal shift (ΔTagg […] °C). The class given is binding. For orientation: TR-FRET usually uses a lanthanide donor and a delayed reading to cut background.

Molecules are shown by their SMILES.

With `Cc1ncc(C(=O)Nc2cn3ccnc3c(CN3CCN(C(=O)C4CCCC4)[C@@H](C)C3)c2C)cn1` [compound 1, (S)-N-(8-((4-(cyclopentanecarbonyl)-3-methylpiperazin-1-yl)methyl)-7-methylimidazo[1,2-a]pyridin-6-yl)-2-methylpyrimidine-5-carboxamide], the 50% inhibitory concentration (IC50) (usually the concentration that gives 50% inhibition) turned out to be 19 nM.
